Experimental data published in the kinase profiling compilation of Christmann-Franck et al. (2016).

Tests used:
Assay in all cases: KINOMEscan competition binding
Conditions in all cases: compound 10.0 µM
[1] = target: PRKX (human) (UniProt P51817)
[2] = target: MAP3K13 (human) (UniProt O43283)
[3] = target: PIP4K2B (human) (UniProt P78356)
[4] = target: DYRK1A (human) (UniProt Q13627)
[5] = target: PRKD1 (human) (UniProt Q15139)
[6] = target: CASK (human) (UniProt O14936)
[7] = target: PRKCQ (human) (UniProt Q04759)
[8] = target: TYRO3 (human) (UniProt Q06418)
[9] = target: DMPK (human) (UniProt Q09013)
[10] = target: RPS6KA5 KD1 (human) (UniProt O75582)
[11] = target: RPS6KA1 KD1 (human) (UniProt Q15418)
[12] = target: AXL (human) (UniProt P30530)
[13] = target: ACVR2A (human) (UniProt P27037)
[14] = target: MAP4K1 (human) (UniProt Q92918)
[15] = target: MAPKAPK2 (human) (UniProt P49137)
[16] = target: PHKG1 (human) (UniProt Q16816)
[17] = target: EPHA4 (human) (UniProt P54764)
[18] = system: EGFR (human), P00533 [L858R]
[19] = target: ACVR1 (human) (UniProt Q04771)
[20] = target: NEK4 (human) (UniProt P51957)
[21] = target: FGFR1 (human) (UniProt P11362)
[22] = target: BMPR2 (human) (UniProt Q13873)
[23] = target: IKBKE (human) (UniProt Q14164)
[24] = target: GRK1 (human) (UniProt Q15835)
[25] = target: MYLK3 (human) (UniProt Q32MK0)
[26] = target: SRPK1 (human) (UniProt Q96SB4)
[27] = target: SRMS (human) (UniProt Q9H3Y6)
[28] = target: PAK4 (human) (UniProt O96013)
[29] = target: PRKAA2 (human) (UniProt P54646)
[30] = target: FGR (human) (UniProt P09769)
[31] = target: PRKACA (human) (UniProt P17612)
[32] = target: CDK7 (human) (UniProt P50613)
[33] = target: AKT2 (human) (UniProt P31751)
[34] = target: ACVR1B (human) (UniProt P36896)
[35] = system: LRRK2 (human), Q5S007 [G2019S]
[36] = target: JAK1 JH1 catalytic (human) (UniProt P23458)
[37] = target: CIT (human) (UniProt O14578)
[38] = target: TXK (human) (UniProt P42681)
[39] = target: FYN (human) (UniProt P06241)
[40] = target: HUNK (human) (UniProt P57058)

Chain of NEK4 (human) (P51957 whole entry, looked up): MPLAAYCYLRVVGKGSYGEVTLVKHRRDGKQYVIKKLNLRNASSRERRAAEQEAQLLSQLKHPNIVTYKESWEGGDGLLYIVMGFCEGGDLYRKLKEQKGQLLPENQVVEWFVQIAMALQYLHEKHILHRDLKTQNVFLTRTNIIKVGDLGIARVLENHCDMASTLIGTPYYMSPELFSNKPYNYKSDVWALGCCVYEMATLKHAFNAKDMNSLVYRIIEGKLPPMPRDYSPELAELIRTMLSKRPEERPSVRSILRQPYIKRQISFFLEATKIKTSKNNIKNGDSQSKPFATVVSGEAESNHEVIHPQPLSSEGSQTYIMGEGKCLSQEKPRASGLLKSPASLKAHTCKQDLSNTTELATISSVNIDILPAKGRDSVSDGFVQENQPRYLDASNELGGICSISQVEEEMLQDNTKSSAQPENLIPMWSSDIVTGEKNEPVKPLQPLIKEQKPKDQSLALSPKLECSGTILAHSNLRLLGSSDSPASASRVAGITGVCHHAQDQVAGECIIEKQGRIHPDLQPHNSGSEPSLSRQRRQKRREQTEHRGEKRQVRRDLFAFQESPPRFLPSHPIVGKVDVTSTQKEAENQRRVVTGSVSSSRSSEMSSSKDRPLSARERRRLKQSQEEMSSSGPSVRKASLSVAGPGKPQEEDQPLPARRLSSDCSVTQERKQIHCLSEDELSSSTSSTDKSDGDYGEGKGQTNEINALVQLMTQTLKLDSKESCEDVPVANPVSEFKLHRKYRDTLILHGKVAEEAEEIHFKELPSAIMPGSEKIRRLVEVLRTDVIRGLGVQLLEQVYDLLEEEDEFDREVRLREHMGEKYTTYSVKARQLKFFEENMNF
Chain of JAK1 JH1 catalytic (human) (P23458 whole entry, looked up): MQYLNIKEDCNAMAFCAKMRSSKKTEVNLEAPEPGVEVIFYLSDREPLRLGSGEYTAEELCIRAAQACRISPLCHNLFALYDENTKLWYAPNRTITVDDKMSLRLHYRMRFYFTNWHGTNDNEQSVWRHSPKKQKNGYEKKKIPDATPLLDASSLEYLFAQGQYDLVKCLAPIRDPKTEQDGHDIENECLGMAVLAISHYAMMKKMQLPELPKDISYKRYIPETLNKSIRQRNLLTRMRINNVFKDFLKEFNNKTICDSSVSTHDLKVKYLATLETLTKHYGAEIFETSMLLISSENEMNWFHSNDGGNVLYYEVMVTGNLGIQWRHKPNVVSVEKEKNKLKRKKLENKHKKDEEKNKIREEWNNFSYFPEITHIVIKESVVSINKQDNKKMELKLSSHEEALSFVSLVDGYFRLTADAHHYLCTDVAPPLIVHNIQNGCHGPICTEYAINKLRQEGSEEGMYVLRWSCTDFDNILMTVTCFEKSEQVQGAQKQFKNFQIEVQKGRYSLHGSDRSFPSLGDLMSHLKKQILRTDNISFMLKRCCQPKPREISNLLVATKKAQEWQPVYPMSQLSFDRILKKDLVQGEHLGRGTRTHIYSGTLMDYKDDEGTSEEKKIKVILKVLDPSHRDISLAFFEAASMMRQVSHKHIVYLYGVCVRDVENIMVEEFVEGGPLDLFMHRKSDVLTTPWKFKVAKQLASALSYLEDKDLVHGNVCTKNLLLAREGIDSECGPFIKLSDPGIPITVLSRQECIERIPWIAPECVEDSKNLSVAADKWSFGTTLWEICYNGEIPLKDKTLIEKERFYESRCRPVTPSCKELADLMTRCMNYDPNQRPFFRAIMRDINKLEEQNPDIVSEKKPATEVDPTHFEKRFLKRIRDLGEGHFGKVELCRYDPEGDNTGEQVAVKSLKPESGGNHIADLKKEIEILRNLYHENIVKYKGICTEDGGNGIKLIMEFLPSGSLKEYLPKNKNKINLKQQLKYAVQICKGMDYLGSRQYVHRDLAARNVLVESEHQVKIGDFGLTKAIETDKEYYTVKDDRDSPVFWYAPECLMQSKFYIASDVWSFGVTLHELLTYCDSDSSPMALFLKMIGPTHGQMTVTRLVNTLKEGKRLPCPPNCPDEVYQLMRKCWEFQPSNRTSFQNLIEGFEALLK
Chain of PIP4K2B (human) (P78356 whole entry, looked up): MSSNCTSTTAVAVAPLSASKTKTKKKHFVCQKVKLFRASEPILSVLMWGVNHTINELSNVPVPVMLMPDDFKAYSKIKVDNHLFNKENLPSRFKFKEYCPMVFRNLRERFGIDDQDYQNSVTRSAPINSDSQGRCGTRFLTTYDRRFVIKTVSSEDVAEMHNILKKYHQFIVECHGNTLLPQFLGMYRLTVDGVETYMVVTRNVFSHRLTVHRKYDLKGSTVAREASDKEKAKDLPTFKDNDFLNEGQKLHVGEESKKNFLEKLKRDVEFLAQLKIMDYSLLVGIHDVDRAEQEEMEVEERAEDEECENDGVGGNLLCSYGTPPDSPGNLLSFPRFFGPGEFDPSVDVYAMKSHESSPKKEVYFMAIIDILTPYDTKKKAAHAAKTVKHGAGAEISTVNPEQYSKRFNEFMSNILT
Chain of PRKCQ (human) (Q04759 whole entry, looked up): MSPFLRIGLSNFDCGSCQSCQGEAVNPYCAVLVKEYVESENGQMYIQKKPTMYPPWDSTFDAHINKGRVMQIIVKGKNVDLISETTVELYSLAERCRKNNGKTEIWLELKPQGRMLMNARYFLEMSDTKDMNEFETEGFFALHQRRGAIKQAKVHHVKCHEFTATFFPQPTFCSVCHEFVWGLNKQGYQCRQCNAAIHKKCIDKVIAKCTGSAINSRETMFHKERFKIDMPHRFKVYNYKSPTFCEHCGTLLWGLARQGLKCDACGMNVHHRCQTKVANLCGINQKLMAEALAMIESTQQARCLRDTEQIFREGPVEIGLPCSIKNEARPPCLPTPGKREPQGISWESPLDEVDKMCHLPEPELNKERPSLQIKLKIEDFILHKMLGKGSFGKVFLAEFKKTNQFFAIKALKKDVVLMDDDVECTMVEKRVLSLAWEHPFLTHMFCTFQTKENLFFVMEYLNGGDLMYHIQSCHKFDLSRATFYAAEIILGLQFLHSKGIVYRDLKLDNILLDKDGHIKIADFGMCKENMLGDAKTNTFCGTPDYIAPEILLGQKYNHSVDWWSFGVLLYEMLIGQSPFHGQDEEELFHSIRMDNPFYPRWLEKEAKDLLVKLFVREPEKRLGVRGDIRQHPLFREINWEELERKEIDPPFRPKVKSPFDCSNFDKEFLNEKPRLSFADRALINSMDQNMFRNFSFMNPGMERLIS
Chain of SRMS (human) (Q9H3Y6 whole entry, looked up): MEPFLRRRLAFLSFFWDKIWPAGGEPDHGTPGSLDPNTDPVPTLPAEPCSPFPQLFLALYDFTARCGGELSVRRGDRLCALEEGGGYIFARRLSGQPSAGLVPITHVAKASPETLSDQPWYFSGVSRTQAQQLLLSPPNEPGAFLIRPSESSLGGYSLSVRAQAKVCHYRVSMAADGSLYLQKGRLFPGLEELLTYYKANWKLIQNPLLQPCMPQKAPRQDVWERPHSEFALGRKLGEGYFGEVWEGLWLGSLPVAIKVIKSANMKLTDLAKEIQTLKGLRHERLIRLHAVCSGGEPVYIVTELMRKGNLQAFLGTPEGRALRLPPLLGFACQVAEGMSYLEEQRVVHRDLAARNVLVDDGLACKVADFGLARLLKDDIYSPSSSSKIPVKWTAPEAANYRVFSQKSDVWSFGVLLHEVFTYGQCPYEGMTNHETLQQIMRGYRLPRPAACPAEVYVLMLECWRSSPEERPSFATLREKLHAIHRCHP
Chain of TXK (human) (P42681 whole entry, looked up): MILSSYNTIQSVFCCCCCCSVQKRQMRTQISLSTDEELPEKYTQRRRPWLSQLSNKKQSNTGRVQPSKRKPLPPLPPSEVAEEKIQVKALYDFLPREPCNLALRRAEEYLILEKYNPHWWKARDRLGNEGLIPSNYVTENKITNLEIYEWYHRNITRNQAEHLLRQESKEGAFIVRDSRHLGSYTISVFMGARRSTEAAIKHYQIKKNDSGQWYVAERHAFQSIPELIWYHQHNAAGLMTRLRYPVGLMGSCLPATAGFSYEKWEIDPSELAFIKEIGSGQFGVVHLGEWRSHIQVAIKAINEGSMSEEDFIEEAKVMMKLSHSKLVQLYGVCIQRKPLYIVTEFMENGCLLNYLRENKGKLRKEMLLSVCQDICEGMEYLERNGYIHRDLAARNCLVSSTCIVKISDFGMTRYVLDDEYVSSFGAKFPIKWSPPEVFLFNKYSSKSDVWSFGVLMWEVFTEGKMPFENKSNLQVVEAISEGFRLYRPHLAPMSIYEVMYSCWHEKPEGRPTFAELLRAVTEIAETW
Chain of RPS6KA5 KD1 (human) (O75582 whole entry, looked up): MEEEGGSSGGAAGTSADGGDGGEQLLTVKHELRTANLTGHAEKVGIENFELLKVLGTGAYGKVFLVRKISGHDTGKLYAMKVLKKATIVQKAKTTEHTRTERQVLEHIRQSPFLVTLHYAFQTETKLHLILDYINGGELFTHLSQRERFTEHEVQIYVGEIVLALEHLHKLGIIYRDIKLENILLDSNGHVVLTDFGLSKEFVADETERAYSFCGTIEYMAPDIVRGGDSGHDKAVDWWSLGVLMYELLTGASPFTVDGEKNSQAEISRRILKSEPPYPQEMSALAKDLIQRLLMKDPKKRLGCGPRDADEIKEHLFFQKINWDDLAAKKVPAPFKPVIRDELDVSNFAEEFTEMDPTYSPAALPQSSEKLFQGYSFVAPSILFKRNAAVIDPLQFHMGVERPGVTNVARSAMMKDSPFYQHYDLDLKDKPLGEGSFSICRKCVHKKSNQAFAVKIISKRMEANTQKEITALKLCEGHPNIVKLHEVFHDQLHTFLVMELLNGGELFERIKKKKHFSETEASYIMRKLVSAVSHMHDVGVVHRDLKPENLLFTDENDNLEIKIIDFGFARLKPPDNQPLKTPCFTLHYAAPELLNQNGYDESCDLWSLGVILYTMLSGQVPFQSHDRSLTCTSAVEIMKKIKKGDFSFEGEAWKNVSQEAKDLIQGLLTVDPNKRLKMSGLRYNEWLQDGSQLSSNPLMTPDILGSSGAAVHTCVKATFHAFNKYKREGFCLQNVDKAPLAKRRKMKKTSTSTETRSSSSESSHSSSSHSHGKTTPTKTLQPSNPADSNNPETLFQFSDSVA

CCN1CCN(Cc2ccc(NC(=O)c3ccc(C)c(/C=C/c4cnc5[nH]ccc5c4OC)c3)cc2C(F)(F)F)CC1
kinase still bound, per cent of control [1]: 75% | kinase still bound, per cent of control [2]: 20% | kinase still bound, per cent of control [3]: 0.4% | kinase still bound, per cent of control [4]: 63% | kinase still bound, per cent of control [5]: 3.5% | kinase still bound, per cent of control [6]: 77% | kinase still bound, per cent of control [7]: 31% | kinase still bound, per cent of control [8]: 100% | kinase still bound, per cent of control [9]: 57% | kinase still bound, per cent of control [10]: 34% | kinase still bound, per cent of control [11]: 31% | kinase still bound, per cent of control [12]: 4.6% | kinase still bound, per cent of control [13]: 100% | kinase still bound, per cent of control [14]: 0% | kinase still bound, per cent of control [15]: 100% | kinase still bound, per cent of control [16]: 100% | kinase still bound, per cent of control [17]: 0% | kinase still bound, per cent of control [18]: 0.1% | kinase still bound, per cent of control [19]: 100% | kinase still bound, per cent of control [20]: 33% | kinase still bound, per cent of control [21]: 0.1% | kinase still bound, per cent of control [22]: 6.6% | kinase still bound, per cent of control [23]: 94% | kinase still bound, per cent of control [24]: 96% | kinase still bound, per cent of control [25]: 100% | kinase still bound, per cent of control [26]: 1.8% | kinase still bound, per cent of control [27]: 0.7% | kinase still bound, per cent of control [28]: 86% | kinase still bound, per cent of control [29]: 39% | kinase still bound, per cent of control [30]: 0.15% | kinase still bound, per cent of control [31]: 100% | kinase still bound, per cent of control [32]: 41% | kinase still bound, per cent of control [33]: 48% | kinase still bound, per cent of control [34]: 98% | kinase still bound, per cent of control [35]: 18% | kinase still bound, per cent of control [36]: 39% | kinase still bound, per cent of control [37]: 0% | kinase still bound, per cent of control [38]: 0.7% | kinase still bound, per cent of control [39]: 1.2% | kinase still bound, per cent of control [40]: 18%

N#C/C(=C1/Nc2ccccc2S1)c1ccnc(NCCc2cccnc2)n1
kinase still bound, per cent of control [1]: 81% | kinase still bound, per cent of control [2]: 100% | kinase still bound, per cent of control [3]: 26% | kinase still bound, per cent of control [4]: 0% | kinase still bound, per cent of control [5]: 100% | kinase still bound, per cent of control [6]: 100% | kinase still bound, per cent of control [7]: 100% | kinase still bound, per cent of control [8]: 100% | kinase still bound, per cent of control [9]: 100% | kinase still bound, per cent of control [10]: 100% | kinase still bound, per cent of control [11]: 83% | kinase still bound, per cent of control [12]: 100% | kinase still bound, per cent of control [13]: 86% | kinase still bound, per cent of control [14]: 100% | kinase still bound, per cent of control [15]: 100% | kinase still bound, per cent of control [16]: 100% | kinase still bound, per cent of control [17]: 100% | kinase still bound, per cent of control [19]: 86% | kinase still bound, per cent of control [20]: 100% | kinase still bound, per cent of control [21]: 98% | kinase still bound, per cent of control [22]: 88% | kinase still bound, per cent of control [23]: 100% | kinase still bound, per cent of control [24]: 100% | kinase still bound, per cent of control [25]: 100% | kinase still bound, per cent of control [26]: 70% | kinase still bound, per cent of control [27]: 2.4% | kinase still bound, per cent of control [28]: 78% | kinase still bound, per cent of control [29]: 100% | kinase still bound, per cent of control [30]: 100% | kinase still bound, per cent of control [31]: 100% | kinase still bound, per cent of control [32]: 16% | kinase still bound, per cent of control [33]: 89% | kinase still bound, per cent of control [34]: 84% | kinase still bound, per cent of control [35]: 74% | kinase still bound, per cent of control [36]: 100% | kinase still bound, per cent of control [37]: 59% | kinase still bound, per cent of control [38]: 61% | kinase still bound, per cent of control [39]: 100% | kinase still bound, per cent of control [40]: 92%
